# Entries after “also recorded” stand apart in the source; their conditions may differ.
# Assays:
# [1] = biological target: T1, ZIKV MTase (Zika virus, UniProt A0A024B7W1); test: Filter binding assay (FBA), ZIKV 2′-O-MTase activity; format: biochemical; conditions: for inhibition at 50 µM: 2′-O-MTase activity, compound at 50 μM, read-out: Percentage of inhibition of ZIKV MTase; for Effect on 2′-O-MTase activity of ZIKV (in words): tested at 50 μM
# T1 construct: the ZIKV NS5 MTase (aa 4-278) domain were synthesized (Genscript); His6 (N); made in house; host or cells: Escherichia coli T7 Express Iq
# T1 sequence (A0A024B7W1 2524-2798): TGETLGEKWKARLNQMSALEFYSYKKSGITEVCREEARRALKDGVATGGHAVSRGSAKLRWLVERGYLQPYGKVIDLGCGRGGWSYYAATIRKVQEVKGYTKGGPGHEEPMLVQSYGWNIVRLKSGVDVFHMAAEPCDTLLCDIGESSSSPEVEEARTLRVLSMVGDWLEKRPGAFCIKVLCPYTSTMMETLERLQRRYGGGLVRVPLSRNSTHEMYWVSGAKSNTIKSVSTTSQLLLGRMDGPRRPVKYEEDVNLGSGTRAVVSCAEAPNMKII
# Description: (§1) The synthesized arylpurines were evaluated for their inhibitory activity against the 2′-O-MTase activity of ZIKV and DENV3 MTases by quantification of [^3H]-methyl transfer from the [^3H]-SAM on short synthetic capped RNA (GpppAC4), by using a filter binding assay (FBA).[13,33] The universal methyltransferase inhibitor sinefungin was included as a positive control (Table 1), whose IC50 value against ZIKV MTase has already been reported using a similar assay.[13] We assessed MTase inhibition by testing the synthesized compounds at a concentration of 50 μM.
# (§2) Proteins were produced and purified as previously described.[13] Briefly, the coding sequence of ZIKV NS5 (aa 4-903) and the ZIKV NS5 MTase (aa 4-278) domain were synthesized (Genscript) based on the sequence of the ZIKV strain H/PF/2013 (GenBank accession no. KJ776791.2) and then cloned into a pQE30 (Qiagen) plasmid with an N-terminal His6 tag. The MTase domains (aa 4-278 and aa 1-264) were produced in Escherichia coli T7 Express Iq (New England BioLabs). Cells were grown in Terrific Broth at 37 °C until the optical density at 600 nm (OD600) reached 0.6. Protein expression was then induced by 0.5 mM IPTG (isopropyl-β-D-thiogalactopyranoside) at 17 °C overnight. Bacteria were harvested by centrifugation. The bacterial pellets from a 2-liter bacterial culture were resuspended in 100 ml lysis buffer (50 mM Tris–HCl [pH 8], 300 mM NaCl, 5% glycerol, 0.1% Triton, 10 μg per ml DNase I, 2 tablets of EDTA-free antiprotease cocktail [Roche], 0.25 mg per ml lysozyme). After 30 min of incubation at 4 °C, cells were sonicated and clarified by centrifugation prior to immobilized metal affinity chromatography (IMAC) purification on a 5-mL His prep column (GE Healthcare), with elution in 50 mM Tris–HCl, 300 mM NaCl, and 250 mM imidazole (pH 8.0). The eluted protein was then loaded on a 16/60 Superdex 200 (GE Healthcare) equilibrated in a mixture of 10 mM HEPES, 500 mM NaCl, glycerol 5%, and 1 mM dithiothreitol (DTT [pH 7.5]).
# (§3) The FBA MTase assay was carried out in a reaction mixture [40 mM Tris–HCl (pH 8.0), 1 mM DTT, 1.9 μM SAM, and 0.1 μM ^3H-SAM (PerkinElmer)] in the presence of 0.7 μM GpppAC4 synthetic RNA and the MTase (500 nM), according to the method previously described.[39] Briefly, the MTase was first mixed with the compound suspended in DMSO (5% final DMSO) before the addition of RNA substrate and SAM and then incubated at 30 °C. Reactions mixtures were stopped after 30 min by their 10-fold dilution in ice-cold water. Samples were transferred to diethylaminoethyl (DEAE) filtermat (PerkinElmer) using a Filtermat Harvester (Packard Instruments). The RNA-retaining mats were washed twice with 10 mM ammonium formate pH 8.0, twice with water and once with ethanol. They were soaked with scintillation fluid (PerkinElmer), and ^3H-methyl transfer to the RNA substrates was determined using a Wallac MicroBeta TriLux liquid scintillation counter (PerkinElmer).
# [2] = biological target: T2, DENV3 MTase (Dengue virus type 3, UniProt P27915); test: Filter binding assay (FBA), DENV3 2′-O-MTase activity; format: biochemical; conditions: for inhibition at 50 µM: 2′-O-MTase activity, compound at 50 μM, read-out: Percentage of inhibition of DENV3 MTase; for Effect on 2′-O-MTase activity of DENV3 (in words): tested at 50 μM
# T2 construct: the MTase activity is located at the N-terminal of the viral NS5 protein; made in house
# T2 sequence (P27915 2492-2753): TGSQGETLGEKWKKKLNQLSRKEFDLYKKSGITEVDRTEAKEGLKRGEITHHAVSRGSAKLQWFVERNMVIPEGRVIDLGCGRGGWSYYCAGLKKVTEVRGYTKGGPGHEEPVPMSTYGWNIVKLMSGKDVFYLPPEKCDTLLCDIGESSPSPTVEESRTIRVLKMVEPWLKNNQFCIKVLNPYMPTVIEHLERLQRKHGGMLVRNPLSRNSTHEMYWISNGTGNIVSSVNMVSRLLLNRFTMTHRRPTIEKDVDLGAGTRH
# Description: as §1, §2, §3
# [3] = test system: ZIKV; test: Antiviral assay against ZIKV in VeroE6 cells (CPE, MTS readout); format: cell-based, zika virus; conditions: for EC50: Zika virus, Vero C1008, VeroE6 cells, concentration that protects 50% of the cells from virus-induced cytopathic effect; for Antiviral activity against ZIKV (in words): cell-based assay
# Description: (§4) These compounds were next evaluated for their antiviral effect on ZIKV replication in Vero E6 and SH-SY5Y cells. 7-Deaza-2′-C-methyladenosine (7DMA), a viral polymerase inhibitor,[35] was included as a positive control.
# (§5) Assessment of the antiviral activity against ZIKV in VeroE6 cells (African green monkey kidney cells; Vero 76, clone E6; ATCC: Cat# CRL-1586) was done as previously described.[35] The antiviral assays in the neuroblastoma SH-SY5Y cells (CRL-2266; ATCC) were conducted as follows: SH-SY5Y cells were seeded in assay medium (MEM supplemented with 2% fetal bovine serum, 2 mM L-glutamine and 0.075% sodium bicarbonate; all from Thermo Fisher Scientific) at a density of 15 000 cells/well in 96-well plates. Cells were incubated overnight at 37 °C and 5% CO2. The next day, a serial dilution of the compounds was added to the cells, followed by inoculation of the cells with ZIKV MR766 (MOI = 0.01). Following a 7-day incubation at 37 °C and 5% CO2, ZIKV-induced cytopathic effect was determined by means of the MTS readout method, analogous to the assay with the VeroE6 cells.[35] The 50% effective concentration (the compound concentration that is required to inhibit virus-induced CPE by 50%; EC50) and the 50% cytotoxic concentration (i.e. the compound concentration that is required to inhibit the cell growth by 50%; CC50) was determined using logarithmic interpolation.
# [4] = Cytotoxicity in non-infected VeroE6 cells; format: cell-based, African green monkey; conditions: African green monkey, non-infected, 50% cytotoxic concentration
# Description: as §5
# [5] = test system: ZIKV MR766; test: Antiviral assay against ZIKV in SH-SY5Y cells (CPE, MTS readout); format: cell-based, zika virus; conditions: Zika virus, 168 h; SH-SY5Y cells; ZIKV MR766, MOI 0.01, 7-day incubation
# Description: as §4
# Besides the standard assays in VeroE6 cells, the compounds were also tested in SH-SY5Y cells. […] Thus, they function as a relevant neuronal cell-based model of ZIKV infection.[38]
# as §5
# [6] = Cytotoxicity in non-infected SH-SY5Y cells; format: cell-based; conditions: human, SH-SY5Y neuroblastoma cells, 50% cytotoxic concentration
# Description: as §5
# [7] = Stability towards spontaneous cyclization in PBS : DMSO followed by HPLC; format: physicochemical; conditions: PBS : DMSO (95 : 5), HPLC over a 24-hour period
# Description: Then, compound 28 was treated with TFA at 70 °C to remove the tert-butyl ester and the p-methoxybenzyl group. Analysis of the reaction by HPLC/MS after 1 h indicated a mixture of two compounds with m/z = 695 and m/z = 575, that might correspond to cyclized products with and without the p-methoxybenzyl group at position 6 (see Fig. S3 at the SI). […] In exploring alternative methods for removing the PMB group, we came across a report by Sako et al., which described the oxidative debenzylation of 6-N-benzyladenosines under neutral pH conditions.[32] Since our compounds are more lipophilic than the nucleosides described by […], we changed the PBS : CH3CN ratio from 2 : 1, as described, to 1 : 1 to favor the solubility of our compounds. Additionally, we used microwave irradiation to shorten the reaction times. Thus, treatment of 27 with […] in PBS : CH3CN (1 : 1) at 80 °C for 45 min under MW irradiation led to the removal of the p-methoxybenzyl group, as detected by HPLC/MS. Further treatment of the reaction product with piperidine afforded 29 (25% yield over the 2 steps). A similar reaction sequence applied to 28 led to compound 30 (21% yield). […] Finally, treatment of 29 and 30 with TFA in DCM at rt afforded compounds 31 and 32 in 73% and 62% yields, respectively. To rule out the possibility of spontaneous cyclization following removal of both protecting groups from the amino acid, compounds 21, 31 and 32 were dissolved in a PBS : DMSO (95 : 5) mixture.
SMILES,inhibition at 50 µM [1] [%],Effect on 2′-O-MTase activity of ZIKV (in words) [1],inhibition at 50 µM [2] [%],Effect on 2′-O-MTase activity of DENV3 (in words) [2],EC50 [3] [µM],CC50 [4] [µM],EC50 [5] [µM],CC50 at 7 days [6] [µM],Stability (no spontaneous cyclization) [7],Antiviral activity against ZIKV (in words) [3]
"Cc1ncnc2c1ccn2-c1cccc(NC(=O)C[C@H](N)C(=O)O)c1 [Compound 21, N ^4-(3-(4-Methyl-7H-pyrrolo[2,3-d]pyrimidin-7-yl)phenyl)-L-asparagine]",0,no effect,0,no effect,> 100,> 100,> 100,> 100,remained intact,–
"Cc1ncnc2c1ccn2-c1cccc(N(CC[C@H](NC(=O)OC(C)(C)C)C(N)=O)CCC(C)(C)C)c1 [Compound 17, tert-Butyl (S)-(1-amino-4-((3,3-dimethylbutyl)(3-(4-methyl-7H-pyrrolo[2,3-d]pyrimidin-7-yl)phenyl)amino)-1-oxobutan-2-yl)carbamate]",11.1,modest inhibition,7.2,modest inhibition,> 100,22.8 ± 0.5,> 100,7,–,–
"C[C@@]1(O)[C@H](O)[C@@H](CO)O[C@H]1n1ccc2c(N)ncnc21 [Compound 7DMA, 7-Deaza-2′-C-methyladenosine, reference compound]",–,–,–,–,9 ± 0.2,> 200,33.7 ± 5.1,> 50,–,–
"CC(C)(C)OC(=O)[C@@H](N)CC(=O)Nc1cccc(-n2cnc3c(N)ncnc32)c1 [Compound 29, tert-Butyl N^4-(3-(6-amino-9H-purin-9-yl)phenyl)-L-asparaginate]",~20,inhibited; also recorded: some inhibition,~20,some inhibition,> 100,> 100,> 100,> 100,–,no antiviral activity
"CC(C)(C)CCN(CC[C@H](N)C(=O)O)c1cccc(-n2cnc3c(N)ncnc32)c1 [Compound 10, (S)-2-Amino-4-((3-(6-amino-9H-purin-9-yl)phenyl)(3,3-dimethylbutyl)amino)butanoic acid]",0,no effect,0,no effect,> 100,> 100,> 100,> 100,–,–
"COc1ccc(NC(=O)C[C@H](N)C(=O)O)cc1-n1cnc2c(N)ncnc21 [Compound 32, N ^4-(3-(6-Amino-9H-purin-9-yl)-4-methoxyphenyl)-L-asparagine]",0,no effect,0,no effect,> 100,> 100,> 100,> 100,remained intact,–
"COc1ccc(NC(=O)C[C@H](N)C(=O)OC(C)(C)C)cc1-n1cnc2c(N)ncnc21 [Compound 30, tert-Butyl N^4-(3-(6-amino-9H-purin-9-yl)-4-methoxyphenyl)-L-asparaginate]",0,no effect,0,no effect,> 100,> 100,> 100,> 100,–,–
"Cc1ncnc2c1ccn2-c1cccc(NC(=O)C[C@H](N)C(=O)OC(C)(C)C)c1 [Compound 20, tert-Butyl N^4-(3-(4-methyl-7H-pyrrolo[2,3-d]pyrimidin-7-yl)phenyl)-L-asparaginate]",0,no effect,0,no effect,> 100,> 33,> 100,> 100,–,–
"Cc1ncnc2c1ccn2-c1cccc(N(CC[C@H](N)C(=O)O)CCC(C)(C)C)c1 [Compound 14, (S)-2-Amino-4-((3,3-dimethylbutyl)(3-(4-methyl-7H-pyrrolo[2,3-d]pyrimidin-7-yl)phenyl)amino)butanoic acid]",0,no effect,0,no effect,> 100,> 100,> 100,> 100,–,–
"Nc1ncnc2c1ncn2-c1cccc(NC(=O)C[C@H](N)C(=O)O)c1 [Compound 31, N ^4-(3-(6-Amino-9H-purin-9-yl)phenyl)-L-asparagine]",~20,inhibited; also recorded: some inhibition,~20,some inhibition,> 100,> 100,> 100,> 100,remained intact,no antiviral activity
